Measured values as given in paper PMC6768028, “Synthesis, SAR and in vitro therapeutic potentials of thiazolidine-2,4-diones” (Chemistry Central Journal, 2018).
≈ marks a conversion by molar mass, not a printed value. Like-named read-outs stand apart in the source and are kept apart here.

How the values were obtained:
[1] = system: Aspergillus niger; assay: Antifungal activity, tube dilution method (MIC); format: cell-based; conditions: 168 h, read-out: Minimum inhibitory concentration, A. niger, tube dilution, 25 ± 1 °C, 7 days
Procedure: (§1) The in vitro antimicrobial activity of synthesized compounds was done by tube dilution method against Gram-positive bacteria: Staphylococcus aureus, Bacillus subtilis, Gram-negative bacteria: Escherichia coli, Klebsiella pneumonia, Salmonella typhi and fungal: Candida albicans and Aspergillus niger strains using cefadroxil and fluconazole as standard. Dilutions of test and standard compounds were prepared in double strength nutrient broth for bacterial strains and Sabouraud dextrose broth for fungal strains.

[2] = system: Candida albicans; assay: Antifungal activity, tube dilution method (MIC); format: cell-based; conditions: 48 h, read-out: Minimum inhibitory concentration, C. albicans, tube dilution, 37 ± 1 °C, 48 h
Procedure: as §1

[3] = system: Staphylococcus aureus; assay: Antimicrobial activity, tube dilution method (MIC); format: cell-based; conditions: 24 h, read-out: Minimum inhibitory concentration, S. aureus, tube dilution, 37 ± 1 °C, 24 h
Procedure: as §1

[4] = system: Salmonella typhi; assay: Antimicrobial activity, tube dilution method (MIC); format: cell-based; conditions: 24 h; for MIC: Salmonella enterica, TYPHI, read-out: Minimum inhibitory concentration, S. typhi
Procedure: as §1

[5] = system: Bacillus subtilis; assay: Antimicrobial activity, tube dilution method (MIC); format: cell-based; conditions: 24 h
Procedure: as §1

[6] = system: Klebsiella pneumonia; assay: Antimicrobial activity, tube dilution method (MIC); format: cell-based; conditions: Klebsiella pneumoniae, 24 h
Procedure: as §1

[7] = system: Escherichia coli; assay: Antimicrobial activity, tube dilution method (MIC); format: cell-based; conditions: 24 h, read-out: Minimum inhibitory concentration, E. coli, tube dilution, 37 ± 1 °C, 24 h
Procedure: as §1

[8] = Antioxidant activity: free radical scavenging method by DPPH assay; conditions: for % inhibition (DPPH), 25 μg/ml / % inhibition (DPPH), 50 μg/ml / % inhibition (DPPH), 75 μg/ml / % inhibition (DPPH), 100 μg/ml: 30 min, 517 nm; for IC50 (antioxidant activity, DPPH): calculated via graph of % inhibition
Procedure: The antioxidant activity of the newly synthesized compounds were evaluated spectrophotometrically using free radical scavenging method by DPPH (2,2-diphenyl-1-picrylhydrazyl) assay. The DPPH is a stable free radical with maximal absorption at 517 nm and is reduced to a corresponding hydrazine when it reacting with hydrogen donors. […] DPPH solution (3 μg/ml) was prepared in methanol and DPPH (in 1:1) solution was used for blank reference. Four dilutions of different concentrations (25, 50, 75 and 100 μg/ml) of each synthesized compound and standard (ascorbic acid) were prepared in the methanol and 1 ml of each concentration was added to 1 ml of DPPH solution. The solution mixture was shaken vigorously and kept in dark place for 30 min at room temperature and absorbance was measured by UV at 517 nm. Percentage inhibition of Free radical DPPH was calculated as follows:1 %Inhibition=ABlank-ASample/ABlank×100 where, ABlank: absorbance of the blank reaction, ASample: absorbance of the test compound.

[9] = system: α-amylase enzyme (diastase); assay: Antidiabetic activity: α-amylase inhibitory activity using diastase, colorimetric method; format: biochemical; conditions: for IC50 (antidiabetic activity, α-amylase): calculated via graph of % inhibition
Procedure: All the synthesized compounds were evaluated against α-amylase inhibitory activity by using diastase based on colorimetric method. 0.25 g of soluble potato starch was dissolved in 50 ml of 20 mM phosphate buffer by heating for 15 min. 1 mg diastase (amylase enzyme) was mixed in 100 ml of 20 mM phosphate buffer (pH 6.9) to obtain the enzyme solution. Different concentrations of all the synthesized derivatives were prepared by dissolving them in DMSO. […] 1 ml of enzyme solution was mixed with 1 ml of each synthesized derivatives and incubated for 10 min at 25 °C. Then 1 ml of this mixture was mixed with 1 ml of soluble potato starch solution in a tube and incubated for 10 min at 25 °C. Then tubes were closed after adding 1 ml of color reagent and placed into water bath for 15 min at 85 °C. The reaction mixture was removed from water bath after 15 min. After cooling, the reaction mixture was diluted with 9 ml of distilled water and the absorbance was taken at 540 nm in UV spectrophotometer. Blank solution was prepared by replacing the enzyme solution with buffer solution and absorbance was taken. Measurement of control was performed in identical manner by replacing the synthesized derivatives in 1 ml of DMSO.
Percentage inhibition of α-amylase enzyme was calculated by using following formula:1 %Inhibition=ABlank-ASample/ABlank×100

[10] = read-out: Minimum inhibitory concentration, B. subtilis, tube dilution, 37 ± 1 °C, 24 h
[11] = read-out: Minimum inhibitory concentration, K. pneumonia, tube dilution, 37 ± 1 °C, 24 h

Row | SMILES | melting point | MIC [1] | MIC [2] | MIC [3] | MIC [4] | MIC [5, 10] | MIC [6, 11] | MIC [7] | % inhibition (DPPH), 25 μg/ml [8] | % inhibition (DPPH), 50 μg/ml [8] | % inhibition (DPPH), 75 μg/ml [8] | % inhibition (DPPH), 100 μg/ml [8] | IC50 (antioxidant activity, DPPH) [8] | % inhibition (α-amylase), 25 μg/ml [9] | % inhibition (α-amylase), 50 μg/ml [9] | % inhibition (α-amylase), 75 μg/ml [9] | % inhibition (α-amylase), 100 μg/ml [9] | IC50 (antidiabetic activity, α-amylase) [9] | also measured
1 | O=C1NC(=O)/C(=C\c2cccc(Cl)c2)S1 [Compound 14, 5-(3-Chlorobenzylidene)thiazolidiine-2,4-dione] | 137 to 140 °C |  |  |  |  |  |  |  |  |  |  |  |  |  |  |  |  |  | 
2 | COc1ccc(C=C2SC(=O)NC2=O)cc1OC [Compound 19, 5-(3,4-Dimethoxybenzylidene)thiazolidine-2,4-dione] |  | 4.7 mM (≈ 1250 µg/mL) | 4.7 mM (≈ 1250 µg/mL) | 4.7 mM (≈ 1250 µg/mL) | 4.7 mM (≈ 1250 µg/mL) | 4.7 mM (≈ 1250 µg/mL) | 9.4 mM (≈ 2490 µg/mL) | 4.7 mM (≈ 1250 µg/mL) | 28.64% | 39.67% | 73.41% | 90.05% | 46.03 µg/mL (≈ 174 µM) | 29.33% | 47.77% | 58.34% | 90.86% | 40.01 µg/mL (≈ 151 µM) | 
3 | COc1cc(C=C2SC(=O)NC2=O)ccc1O [Compound 18, 5-(4-Hydroxy-3-methoxybenzylidene)thiazolidine-2,4-dione] |  | 4.9 mM (≈ 1230 µg/mL) | 4.9 mM (≈ 1230 µg/mL) | 4.9 mM (≈ 1230 µg/mL) | 4.9 mM (≈ 1230 µg/mL) | 4.9 mM (≈ 1230 µg/mL) | 9.9 mM (≈ 2490 µg/mL) | 4.9 mM (≈ 1230 µg/mL) | 36.94% | 43.52% | 60.12% | 93.03% | 33.51 µg/mL (≈ 133 µM) | 18.64% | 45.85% | 65.11% | 95.98% | 56.39 µg/mL (≈ 224 µM) | 
4 | COc1cc(C=C2SC(=O)NC2=O)cc(OC)c1OC [Compound 10, 5-(3,4,5-Trimethoxybenzylidene)thiazolidine-2,4-dione] | 210 to 213 °C |  |  |  | 4.2 mM (≈ 1240 µg/mL) |  | 4.2 mM (≈ 1240 µg/mL) | 8.4 mM (≈ 2480 µg/mL) | 28.61% | 39.67% | 59.75% | 86.70% | 43.44 µg/mL (≈ 147 µM) | 29.34% | 43.98% | 63.36% | 98.14% | 47.49 µg/mL (≈ 161 µM) | Minimum inhibitory concentration, S. typhi ([4]; tube dilution, 37 ± 1 °C): 4.20 μΜ/ml
5 | COc1ccccc1C=C1SC(=O)NC1=O [Compound 15, 5-(2-Methoxybenzylidene)thiazolidine-2,4-dione] | 147 to 150 °C | 5.31 mM (≈ 1250 µg/mL) | 5.31 mM (≈ 1250 µg/mL) | 5.31 mM (≈ 1250 µg/mL) | 5.31 mM (≈ 1250 µg/mL) | 5.31 mM (≈ 1250 µg/mL) |  | 5.31 mM (≈ 1250 µg/mL) | 33.51% | 43.98% | 77.21% | 98.67% | 43.25 µg/mL (≈ 184 µM) | 32.59% | 51.78% | 66.98% | 81.30% | 22.35 µg/mL (≈ 95 µM) | 
6 | O=C1NC(=O)C(=Cc2ccccc2O)S1 [Compound 17, 5-(2-Hydroxybenzylidene)thiazolidine-2,4-dione] |  | 5.65 mM (≈ 1250 µg/mL) | 5.65 mM (≈ 1250 µg/mL) | 5.65 mM (≈ 1250 µg/mL) | 5.65 mM (≈ 1250 µg/mL) |  |  | 5.65 mM (≈ 1250 µg/mL) | 32.78% | 40.24% | 69.55% | 89.87% | 40.06 µg/mL (≈ 181 µM) | 23.67% | 48.56% | 65.46% | 93.17% | 48.48 µg/mL (≈ 219 µM) | MIC ([5]; tube dilution, 37 ± 1 °C, read-out: Minimum inhibitory concentration, B. subtilis): 11.3 mM (≈ 2500 µg/mL); MIC ([6]; tube dilution, 37 ± 1 °C, read-out: Minimum inhibitory concentration, K. pneumonia): 11.3 mM (≈ 2500 µg/mL)
7 | O=C1NC(=O)C(=Cc2ccccc2Cl)S1 [Compound 13, 5-(2-Chlorobenzylidene)thiazolidine-2,4-dione] |  | 2.6 mM (≈ 623 µg/mL) | 5.21 mM (≈ 1250 µg/mL) | 5.21 mM (≈ 1250 µg/mL) | 5.21 mM (≈ 1250 µg/mL) | 10.4 mM (≈ 2490 µg/mL) | 10.4 mM (≈ 2490 µg/mL) | 5.21 mM (≈ 1250 µg/mL) | 24.45% | 44.76% | 71.51% | 77.84% | 39.41 µg/mL (≈ 164 µM) | 25.74% | 43.89% | 56.76% | 92.72% | 48.45 µg/mL (≈ 202 µM) | 
8 | O=C1NC(=O)C(=Cc2ccc([N+](=O)[O-])cc2)S1 [Compound 1, 5-(4-Nitrobenzylidene)thiazolidine-2,4-dione] |  | 4.9 mM (≈ 1230 µg/mL) | 4.9 mM (≈ 1230 µg/mL) | 4.9 mM (≈ 1230 µg/mL) | 4.9 mM (≈ 1230 µg/mL) | 9.9 mM (≈ 2480 µg/mL) | 9.9 mM (≈ 2480 µg/mL) | 4.9 mM (≈ 1230 µg/mL) | 32.64% | 40.22% | 73.41% | 84.81% | 36.35 µg/mL (≈ 145 µM) | 22.65% | 35.79% | 55.52% | 88.68% | 54.35 µg/mL (≈ 217 µM) | 
